Reference: patent US10995068B2, “Synthetic sphingolipid-like molecules, drugs, methods of their synthesis and methods of treatment” (The Regents of the University of California, priority 2015, dated 2021)
“Also recorded” adds a separate entry of the source.

How the values were obtained:
[1] = biological target: T1, S1P receptor 4 (Homo sapiens, UniProt O95977); assay: S1P receptor activation in CHO cells, S1P4; assay type: cell-based; conditions: CHO cells over-expressing human S1P4
T1 construct: expressed in transfected cells
T1 sequence (O95977 1-384): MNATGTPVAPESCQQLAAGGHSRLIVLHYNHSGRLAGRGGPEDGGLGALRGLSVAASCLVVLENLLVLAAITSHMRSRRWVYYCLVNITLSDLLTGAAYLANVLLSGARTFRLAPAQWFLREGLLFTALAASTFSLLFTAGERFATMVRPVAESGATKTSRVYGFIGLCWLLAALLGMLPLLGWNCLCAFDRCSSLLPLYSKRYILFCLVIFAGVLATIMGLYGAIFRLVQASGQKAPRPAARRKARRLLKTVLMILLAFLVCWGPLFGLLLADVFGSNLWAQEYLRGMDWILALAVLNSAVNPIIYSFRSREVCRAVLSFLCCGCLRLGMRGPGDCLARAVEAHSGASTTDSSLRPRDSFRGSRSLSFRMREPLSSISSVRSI
Description: (§1) Phosphorylation may have effects on S1P receptor activity that could cause bradycardia. Bradycardia, the dose-limiting toxicity that prevents the use of FTY720 in cancer patients, stems from FTY720-P's actions on S1P receptors 1 and 3. (Camm, J., et al. (2014) Am. Heart J. 168, 632-644; Cohen, J. A., Chun, J. (2011) Ann. Neurol. 69, 759-777; Sanna, M. G., et al. (2004) J. Biol. Chem. 279, 13839-13848; the disclosures of which are incorporated herein by reference). Phosphorylation by sphingosine kinase may make compounds competent to activate S1P receptors. FTY720, for example, when phosphorylated is known to activate S1P receptors 1 and 3. Because compound 5 could be phosphorylated, the activity of compound 5 and its phosphate 5-P (FIG. 28) on S1P receptors was evaluated (FIG. 32).
(§2) 51P1-5 activation: Chinese hamster ovary (CHO) cells stably over-expressing the different human 51P receptor subtypes are used. S1P1, S1P4 and S1P5 overexpressing CHO cells are cultured in medium containing alpha-MEM supplemented with 10% FBS, 50 μg/ml gentamycin and 0.5 mg/ml G418. S1P2 and S1P3 overexpressing CHO cells are cultured in RPMI containing 10% FBS, 50 μg/ml gentamycin and 0.5 mg/ml G418. Prior to stimulation, cells are rendered serum-free for 24 h. Stimulation is carried out for 10 min in serum-free DMEM containing 0.1 mg/ml of fatty-acid free BSA in the absence or presence of the various compounds or 51P. Protein lysates are prepared using a buffer containing (50 mM Tris pH 7.4, 150 mM NaCl, 10% glycerol, 1% Triton X-100, 2 mM EDTA, 2 mM EGTA, 40 mM β-glycerophosphate, 50 mM sodium fluoride, 10 mM sodium pyrophosphate, 2 mM dithiothreitol, 0.2 mM sodium orthovanadate). Cells are homogenized by one 5 sec burst in a MSE Ultrasonic Disintegrator, centrifuged and taken for protein determination. Equal amounts of protein are separated by SDS-PAGE (10% polyacrylamide gel), transferred to nitrocellulose membranes and subjected to Western blot analysis. Bands were stained using IRDye® secondary antibodies and visualized by the LICOR Odyssey® Fc Imaging system. Antibodies against phospho-Thr202/Tyr204-p42/p44-MAPK and phospho-Ser PKC substrate are from Cell Signaling, Frankfurt am Main, Germany. Polyclonal antisera against total p42 and total p44 were generated and characterized as previously described. (Huwiler, A.; Pfeilschifter, J. Br. J. Pharmacol. 1994, 113, 1455-1463; disclosure of which is incorporated herein by reference).

[2] = Lymphocyte sequestration in mice; assay type: in vivo, C57BL6 mice; conditions: 10 mg/kg intraperitoneally, blood after 12 h, compared to saline
Description: (§3) In more exemplary embodiments, compounds 5 and 5-P were further examined for their ability to activate multiple S1P receptors in vivo. In particular, mouse heart rate and lymphocyte sequestration were examined. Mouse heart rate decreases causing bradycardia when S1P receptor 3 is activated while in humans this effect may be mediated by S1P receptor 1. In both mice and humans, lymphocytes are sequestered when the S1P receptor 1 is activated.
Lymphocyte sequestration: Female 8-24 week old C57BL6 mice are injected intraperitoneally with vehicle (0.9% saline or 20% acidified DMSO in 0.9% saline), 10 mg/kg FTY720, FTY720-phosphate, 5, or 5-P. After 12 h, blood is collected from the retro-orbital sinus under ketamine/xylazine anesthesia. 10 μL of whole blood is added to 190 μL of ACK red blood cell lysis buffer, incubated at room temperature for 3-5 minutes […], and the white blood cells recovered by centrifugation. Nucleated cells (Hoechst33342 positive) are counted using a hemocytometer to obtain the white blood cell count. Separately, 50 μL of whole blood is added to 1 mL of ACK red blood cell lysis buffer and incubated for 3-5 minutes at room temperature. Cells are washed with FACS wash (2% FCS in PBS with 0.05% NaN3) and red blood cell lysis repeated. Tubes are decanted and resuspended in 100 μL of FACS block (10% FCS in PBS with 0.05% NaN3) with directly conjugated antibodies recognizing B220, CD4, or CD8 (all from Biolegend, San Diego) for 30 min on ice. Cells are analyzed on a BD LSR II flow cytometer; the analysis is restricted to live cells (DAPI negative). These experiments are performed in accordance with all national or local guidelines and regulations and are approved by the UCI Institutional Animal Care and Use Committee.

[3] = biological target: T2, S1P receptor 1 (Homo sapiens, UniProt P21453); assay: S1P receptor activation in CHO cells, S1P1; assay type: cell-based; conditions: CHO cells over-expressing human S1P1, 10 min stimulation, Western blot
T2 construct: expressed in transfected cells
T2 sequence (P21453 whole entry): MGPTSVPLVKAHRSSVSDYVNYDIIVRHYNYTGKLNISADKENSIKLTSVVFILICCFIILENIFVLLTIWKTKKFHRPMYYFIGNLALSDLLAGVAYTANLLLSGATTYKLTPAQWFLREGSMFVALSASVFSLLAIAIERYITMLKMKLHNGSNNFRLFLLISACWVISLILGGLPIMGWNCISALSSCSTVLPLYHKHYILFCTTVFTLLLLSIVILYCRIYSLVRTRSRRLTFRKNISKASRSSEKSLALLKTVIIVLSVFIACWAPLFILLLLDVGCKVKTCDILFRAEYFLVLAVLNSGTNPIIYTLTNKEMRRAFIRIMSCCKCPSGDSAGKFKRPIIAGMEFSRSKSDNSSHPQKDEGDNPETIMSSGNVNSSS
Description: as §1, §2

[4] = biological target: T3, S1P receptor 2 (Homo sapiens, UniProt O95136); assay: S1P receptor activation in CHO cells, S1P2; assay type: cell-based; conditions: CHO cells over-expressing human S1P2
T3 construct: expressed in transfected cells
T3 sequence (O95136 whole entry): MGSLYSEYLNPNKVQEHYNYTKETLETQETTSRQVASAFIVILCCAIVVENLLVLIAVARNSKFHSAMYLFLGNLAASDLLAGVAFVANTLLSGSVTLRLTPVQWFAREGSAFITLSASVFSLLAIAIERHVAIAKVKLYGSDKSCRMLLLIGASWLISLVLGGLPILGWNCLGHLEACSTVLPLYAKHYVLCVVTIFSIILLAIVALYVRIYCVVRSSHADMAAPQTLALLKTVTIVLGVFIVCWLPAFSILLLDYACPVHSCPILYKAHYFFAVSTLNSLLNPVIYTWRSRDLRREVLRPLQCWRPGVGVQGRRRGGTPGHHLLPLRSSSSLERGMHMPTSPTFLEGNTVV
Description: as §1, §2

[5] = biological target: T4, S1P receptor 3 (Homo sapiens, UniProt Q99500); assay: S1P receptor activation in CHO cells, S1P3; assay type: cell-based; conditions: CHO cells over-expressing human S1P3
T4 construct: expressed in transfected cells
T4 sequence (Q99500 whole entry): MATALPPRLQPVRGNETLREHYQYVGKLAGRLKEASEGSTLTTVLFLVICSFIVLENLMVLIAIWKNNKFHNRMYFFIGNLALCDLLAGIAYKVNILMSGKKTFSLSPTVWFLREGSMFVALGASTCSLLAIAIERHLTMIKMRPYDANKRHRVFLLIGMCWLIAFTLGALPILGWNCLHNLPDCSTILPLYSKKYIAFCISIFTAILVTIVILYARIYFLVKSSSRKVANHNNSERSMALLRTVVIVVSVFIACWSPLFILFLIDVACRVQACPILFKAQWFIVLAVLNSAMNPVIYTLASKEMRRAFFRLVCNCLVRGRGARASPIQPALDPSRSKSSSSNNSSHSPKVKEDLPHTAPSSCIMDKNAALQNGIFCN
Description: as §1, §2

[6] = biological target: T5, S1P receptor 5 (Homo sapiens, UniProt Q9H228); assay: S1P receptor activation in CHO cells, S1P5; assay type: cell-based; conditions: CHO cells over-expressing human S1P5
T5 construct: expressed in transfected cells
T5 sequence (Q9H228 whole entry): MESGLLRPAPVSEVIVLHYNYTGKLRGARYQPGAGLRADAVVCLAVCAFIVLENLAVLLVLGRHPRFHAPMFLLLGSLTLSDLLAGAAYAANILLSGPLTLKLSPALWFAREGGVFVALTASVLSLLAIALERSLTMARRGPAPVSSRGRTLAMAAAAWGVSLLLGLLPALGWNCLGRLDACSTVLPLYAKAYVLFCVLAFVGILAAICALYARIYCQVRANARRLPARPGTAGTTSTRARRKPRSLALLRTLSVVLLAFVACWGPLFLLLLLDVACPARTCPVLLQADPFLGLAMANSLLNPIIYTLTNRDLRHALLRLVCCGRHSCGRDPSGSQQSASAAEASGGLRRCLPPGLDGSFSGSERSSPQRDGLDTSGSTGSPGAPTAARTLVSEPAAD
Description: as §1, §2

[7] = Heart rate by ECG telemetry in mice; assay type: in vivo, C57BL/6 mice; conditions: single dose 10 mg/kg intraperitoneally, compared to saline controls
Description: as §3
As shown in the telemetry readings detailed in FIG. 36, FTY720 (B) slowed heart rate comparison to compound 5 (C) and the control (A, saline). As shown in A, after administering saline, normal sinus rhythm with clearly discernible P waves, representing atrial depolarization, and QRS complexes, representing ventricular depolarization, at regular intervals is observed. The heart rate in this tracing was approximately 600 beats per minute (BPM). […] Finally, as shown in C, for exemplary embodiment compound 5, similar to the saline injection, normal sinus rhythm with well-defined and consistent P waves and QRS complexes were present following injection. The heart rate in this tracing was approximately 600 BPM, similar to saline.
Heart rate: C57BL/6 mice are surgically implanted with DSI TA-ETAF20 electrocardiographic telemetry devices (Data Sciences International, St. Paul, Minn.). The electrocardiographic data is collected and recorded using the PhysioTel telemetry system and Dataquest A.R.T 4.0 software (DSI). The telemetry device is implanted in the mouse's abdominal cavity with biopotential leads sutured in place in the chest wall. Buprenorphine (0.05 mg/kg) is administered every 12 h after surgery for pain management and enrofloxacin (3 mg/kg) is administered 2× per day for 7 days post-surgery as an antibiotic. Mice are permitted two weeks recovery after surgery before initiation of baseline telemetry recordings. Heart rate is calculated from ECG data taken in the freely moving, conscious mice. Mice are divided into two groups of 3 mice and treated intraperitoneally with a single dose of vehicle (0.9% saline or 20% acidified DMSO in 0.9% saline), 10 mg/kg FTY720, FTY720-Phosphate, 5, or 5-P and heart rate monitored continuously for 10 h. Mice are rested for two weeks at which point the experiment is repeated with the mice assigned to the alternate group. These experiments are performed in accordance with all national or local guidelines and regulations and were approved by the UCI Institutional Animal Care and Use Committee.

[8] = system: PP2A; assay: PP2A phosphatase activity; assay type: biochemical, murine; conditions: PP2A immunoprecipitated from FL5.12 cell lysates, phosphopeptide dephosphorylation
Description: Furthermore, many embodiments of the invention are directed to azacyclic constrained sphingolipid-like molecules inducing internalization of nutrient transporters via a mechanism that activates PP2A. […] Thus, activation of PP2A is very peculiar to certain sphingolipid structures. Activation of PP2A by FTY720 and SH-BC-893 also stimulated vacuolation, and as the PP2A inhibitors calyculin A and SV40 small t antigen, each blocked this effect (FIG. 59C). Of note, YM201636-induced vacuolation was unaffected by PP2A inhibition (FIG. 60B). In addition, inhibiting PP2A restored PIKfyve to the proper location within vacuoles in cells treated with FTY720 or SH-BC-893 (FIG. 57D).
PP2A phosphatase activity. PP2A activity was measured using a PP2A immunoprecipitation phosphatase assay kit (EMD Millipore). Briefly, the catalytic subunit of PP2A was immunoprecipitated from FL5.12 cell lysates with 4 μg anti-PP2A, C subunit. After four washes, the activity of immunoprecipitated PP2A was assessed by dephosphorylation of the phosphopeptide according to the manufacturer's instructions in the presence or absence of C2-ceramide, dihydro-C2-ceramide, FTY720, SH-BC-893, or calyculinA.

[9] = system: murine hematopoietic cell line FL5.12; assay: Viability of FL5.12 cells by vital dye exclusion; assay type: cell-based; conditions: FL5.12 cells, 48 h, vital dye exclusion; n ≥3
Protocol: Cell culture studies: FL5.12 cells (murine hematopoetic cells originally obtained from Craig Thompson, Memorial Sloan Kettering Cancer Center) were maintained at 0.1-0.5 million/ml in RPMI 1640 (Mediatech) supplemented with 10% fetal calf serum (FCS, Sigma-Aldrich), 10 mM Hepes (Mediatech), 500 pg/ml recombinant IL-3 (cat #575502, Biolegend), 55 μM β-mercaptoethanol (Sigma-Aldrich), 2 mM L-glutamine (Mediatech), and antibiotics. Cells were screened for Mycoplasma every 3 months using the Look-Out Mycoplasma PCR Detection kit (cat #MP0035, Sigma).
IC50 values were calculated using GraphPad Prism (GraphPad Software, Inc, La Jolla, Calif.).

[10] = system: FL5.12 cells; assay: Vacuolation assay; assay type: cell-based, murine; parameters: key to Vacuolation score: 0-100 score: (3×%cat3+2×%cat2+1×%cat1)/3; cells graded 0-3 for vacuoles; conditions: FL5.12 cells
Protocol: In an exemplified study, nutrient transporter down-regulation was monitored by quantifying surface levels of the amino acid transporter-associated protein, CD98, by flow cytometry. Vacuolation was scored in a range from 0 to […], as determined by a vacuolation assay described in greater detail in the Materials and Methods section below.
Vacuolation assay: Cells were evaluated at 100× using brightfield microscopy and a Nikon TE2000-S fluorescence microscope equipped with DIC filters. Vacuolation was quantified after a 3 h incubation period in 2.5 μM compound except where otherwise indicated. To calculate a vacuolation score, vacuolation severity in at least 15 individual cells/experiment was assessed qualitatively. Scores were assigned to individual cells as follows: 0=no vacuoles, 1=very small vacuoles, 2=multiple well-defined vacuoles, 3=multiple large vacuoles. To calculate the vacuolation score associated with a compound, the following formula was used: vacuolation score=[(3×% cells in category 3)+(2×% cells in category 2)+(1×% cells in category 1)]/3.
The score is divided by 3 so that a compound with 100% of its cells in category 3 would have a vacuolation score of 100. Three independent experiments were conducted and the vacuolation scores averaged to generate a mean+/−SEM. All cells were scored by one lab member after confirming that a blinded individual scored 5 compounds with similar results.

Row | Structure (SMILES) | activation of S1P receptor 4 [1] | lymphocyte sequestration [2] | activation of S1P receptor 1 [3] | activation of S1P receptor 2 [4] | activation of S1P receptor 3 [5] | activation of S1P receptor 5 [6] | effect on heart rate [7] | PP2A activation [8] | IC50 (μM) [95% CI] [9] | Vacuolation score ([10]; 3 h in 2.5 μM compound except where otherwise indicated, mean ± SEM, n ≥3) | vacuolation (in words) ([10]; at any dose / highest dose tested)
1 | CCCCCCCCc1ccc([C@H]2CCN[C@@H]2COP(=O)(O)O)cc1 [Compound 5-P, ((2S,3R)-3-(4-octylphenyl)pyrrolidin-1-ium-2-yl)Methyl hydrogen phosphate] | failed to activate | no significant effect | weakly activated | failed to activate | failed to activate | failed to activate | no significant effect | – | – | – | –
2 | CCCCCCCCCCCCCCC[C@@H](O)[C@H](CO)NC(C)=O [Compound 110, dihydro-C2-ceramide, reference compound] | – | – | – | – | – | – | – | does not activate PP2A | failed to kill cells; also recorded: Cytostatic | 0 | caused no vacuolation
